Results on two compounds are retold here after patent US10342786B2, “P38 kinase inhibitors reduce DUX4 and downstream gene expression for the treatment of FSHD” (Fulcrum Therapeutics, Inc., priority 2017, dated 2019).

What all share (type): cell-based, human
One data set concerns DUX4-fl mRNA. The data set is described as follows: DUX4 / DUX4-fl mRNA expression by qPCR in FSHD myotubes. The method, then:
In a 6 well plate, 450 μL Buffer RLT Plus was added. Lysate was homogenized by transfer the lysate to a gDNA Eliminator spin column placed in a 2 mL collection tube (supplied), centrifuged for 30 s at ≥8000×g (≥10,000 rpm) and discarded column while saving the flow-through. Then 250 μL of Ethanol (35% final) was added to the flow-through, and mixed well by pipetting, not centrifuged. Then samples were transferred, including any precipitate that may have formed, to an RNeasy MinElute spin column placed in a 2 mL collection tube (supplied). Then centrifuged for 15 s at ≥8000×g. Flow-through was discarded or collected for Protein precipitation. 700 μL Buffer RW1 to the RNeasy MinElute spin column was added then centrifuge for 15 s at ≥8000×g. and discard the flow-through. DNAse treatment was performed by gently mixing 10 μL DNAseI with 70 μL of Buffer RDD and added directly to the column, incubated at room temperature for 20 min. Then, 700 μL Buffer RW1 (per manufactures specification) to the RNeasy MinElute spin column, centrifuged for 15 s at >8000×g. and the flow-through discarded. 500 μL Buffer RPE was added to the RNeasy MinElute spin column centrifuged for 15 s at ≥8000×g and discarded the flow-through. 500 μL of 80% ethanol was added to the RNeasy MinElute spin column, centrifuged for 2 min at ≥8000×g to wash the spin column membrane and the collection tube was discarded with the flow-through. The RNeasy MinElute spin column was placed in a new 2 mL collection tube (supplied) centrifuged at full speed for 5 min to dry the membrane and the collection tube was discarded with the flow through. RNeasy MinElute spin column was placed in a new 1.5 mL collection tube (supplied). 14 μL RNase-free water was added directly to the center of the spin column membrane, and centrifuged for 1 min at full speed to elute the RNA. You should end up with about 12 μL of eluted RNA.
cDNA preparation. […] 10 seconds then read plate on QuantStudio7 as per manufactures instruction (Thermo). […]
(Real-time PCR tracks product formation cycle by cycle.)

A further data set relates to FSHD myotubes. The data set can be described thus: Myotube formation / fusion (MHC and DAPI staining). The note with it: 10, 100, and 1000 nM; FSHD myotubes. The method, then: On day 0, change to differentiation media. Remove plates from the incubator and aspirate the growth medium, Wash once with PBS, 100 μL for 96-wells and 1 mL for a 6-well plate, Add 100 μL or 2 mL of differentiation medium per well, 96- or 6-well respectively. Add antisense oligonucleotides or drug at the desire concentration and put back in the incubator. Fusion should start within day 1-2. Incubate for 3-4 days.
Briefly, cells were fixed in 4% paraformaldehyde and […] for 10 min at room temperature. Cells were permeabilized with PBST (1×PBS solution with 0.1% Triton X-100) before blocking with 10% Normal Donkey Serum or 3% BSA (NDS) in PBST. […] DUX4 was detected by immunocytochemistry using the E5-5 antibody in differentiated FSHD myotubes. Activated Caspase-3 was detected cell signaling antibody that we're using for ICC, Asp175 (https://www.cellsignal.com/products/primary-antibodies/cleaved-caspase-3-asp175-antibody/9661).
Immortalized FHSD myotubes were differentiated and treated with DMSO vehicle control or FTX-1821 at concentrations of 1 μM, 0.33 μM, 0.11 μM or 0.037 μM. […] The nuclei in myotubes were quantified according to […] staining (FIG. 8B).

Data set [1] deals with active Caspase-3 in FSHD myotubes. The data set is described as follows: Apoptosis by active Caspase-3 in FSHD myotubes. The note with it: FSHD1 and FSHD2 lines; vs healthy control line CTRL-FTCE-014. The procedure: Briefly, cells were fixed in 4% paraformaldehyde and […] for 10 min at room temperature. Cells were permeabilized with PBST (1×PBS solution with 0.1% Triton X-100) before blocking with 10% Normal Donkey Serum or 3% BSA (NDS) in PBST. Cells were then incubated with appropriately diluted primary antibodies in PBST with 5% NDS for 1 hours at room temperature or 12 hours at 4° C., washed with PB ST for 3 times at room temperature and then incubated with desired secondary antibodies in TBST with 5% NDS and DAPI to counter stain the nuclei. DUX4 was detected by immunocytochemistry using the E5-5 antibody in differentiated FSHD myotubes. Activated Caspase-3 was detected cell signaling antibody that we're using for ICC, Asp175 (https://www.cellsignal.com/products/primary-antibodies/cleaved-caspase-3-asp175-antibody/9661).
Apoptosis was measured by active Caspase-3 levels in FSHD myotubes in vitro as described in Materials and Methods. Apoptosis was detected in a sporadic manner in a subset of myotubes in culture as shown by the white circles and magnified region in FIG. 9A. Active Caspase-3 signal was quantified in FSHD myotubes that had been treated with FTX-1821 at different concentrations (FIG. 9B). […] No change in active Caspase-3 signal was observed following DMSO treatment.

As for “FTX-2: DUX4 sequence-directed antisense oligonucleotide purchased from Exiqon, CAGCGTCGGAAGGTGG (SEQ ID NO: 1) (listed as DNA, chemistry not given here)”, the DUX4 expression entry in the data set on DUX4-fl mRNA (1 μM ASO, FSHD myotubes vs DMSO) is on record as “reduced amounts”; with DUX4-fl mRNA (different dilutions of the ASO, FSHD myotubes) it was “dose dependent reduction”.

Turning to `Cn1c(=O)c(Oc2ccc(F)cc2F)cc2cnc(NC(CCO)CCO)nc21` [Pamapimod, 6-(2,4-difluorophenoxy)-2-((1,5-dihydroxypentan-3-yl)amino)-8-methylpyrido[2,3-d]pyrimidin-7(8H)-one], the “DUX4-fl mRNA levels normalized to POLR2A mRNA” value with DUX4-fl mRNA (10, 100, and 1000 nM, FSHD myotubes, compared to DMSO) is on record as “dose-dependently reduced”. The differentiation into myotubes entry with FSHD myotubes is “without impacting”. In data set [1], the “apoptosis (active caspase-3)” value is “reduction”.
